The source made the active and inactive calls. The calls are words filed in the database; no cut-off is given here.
Experiments:
[1] = target: Ribosomal protein S6 kinase alpha-3 (Homo sapiens, UniProt P51812); experiment: Inhibition of RSK2 domain 1 in human HeLa cells lysate at 50 uM pre incubated for 15 mins followed by ADP acyl phosphate probe addition and measured after 10 mins by LC-MS/MS analysis relative to control; type: subcellular; conditions: time 25.0 min
[2] = target: Serine/threonine-protein kinase WNK1 (Homo sapiens, UniProt Q9H4A3); experiment: Inhibition of Wnk1 in human HeLa cells lysate pre incubated for 15 mins followed by ATP acyl phosphate probe addition and measured after 10 mins by LC-MS/MS analysis; type: subcellular
Serine/threonine-protein kinase WNK1, sequence (Q9H4A3 whole entry): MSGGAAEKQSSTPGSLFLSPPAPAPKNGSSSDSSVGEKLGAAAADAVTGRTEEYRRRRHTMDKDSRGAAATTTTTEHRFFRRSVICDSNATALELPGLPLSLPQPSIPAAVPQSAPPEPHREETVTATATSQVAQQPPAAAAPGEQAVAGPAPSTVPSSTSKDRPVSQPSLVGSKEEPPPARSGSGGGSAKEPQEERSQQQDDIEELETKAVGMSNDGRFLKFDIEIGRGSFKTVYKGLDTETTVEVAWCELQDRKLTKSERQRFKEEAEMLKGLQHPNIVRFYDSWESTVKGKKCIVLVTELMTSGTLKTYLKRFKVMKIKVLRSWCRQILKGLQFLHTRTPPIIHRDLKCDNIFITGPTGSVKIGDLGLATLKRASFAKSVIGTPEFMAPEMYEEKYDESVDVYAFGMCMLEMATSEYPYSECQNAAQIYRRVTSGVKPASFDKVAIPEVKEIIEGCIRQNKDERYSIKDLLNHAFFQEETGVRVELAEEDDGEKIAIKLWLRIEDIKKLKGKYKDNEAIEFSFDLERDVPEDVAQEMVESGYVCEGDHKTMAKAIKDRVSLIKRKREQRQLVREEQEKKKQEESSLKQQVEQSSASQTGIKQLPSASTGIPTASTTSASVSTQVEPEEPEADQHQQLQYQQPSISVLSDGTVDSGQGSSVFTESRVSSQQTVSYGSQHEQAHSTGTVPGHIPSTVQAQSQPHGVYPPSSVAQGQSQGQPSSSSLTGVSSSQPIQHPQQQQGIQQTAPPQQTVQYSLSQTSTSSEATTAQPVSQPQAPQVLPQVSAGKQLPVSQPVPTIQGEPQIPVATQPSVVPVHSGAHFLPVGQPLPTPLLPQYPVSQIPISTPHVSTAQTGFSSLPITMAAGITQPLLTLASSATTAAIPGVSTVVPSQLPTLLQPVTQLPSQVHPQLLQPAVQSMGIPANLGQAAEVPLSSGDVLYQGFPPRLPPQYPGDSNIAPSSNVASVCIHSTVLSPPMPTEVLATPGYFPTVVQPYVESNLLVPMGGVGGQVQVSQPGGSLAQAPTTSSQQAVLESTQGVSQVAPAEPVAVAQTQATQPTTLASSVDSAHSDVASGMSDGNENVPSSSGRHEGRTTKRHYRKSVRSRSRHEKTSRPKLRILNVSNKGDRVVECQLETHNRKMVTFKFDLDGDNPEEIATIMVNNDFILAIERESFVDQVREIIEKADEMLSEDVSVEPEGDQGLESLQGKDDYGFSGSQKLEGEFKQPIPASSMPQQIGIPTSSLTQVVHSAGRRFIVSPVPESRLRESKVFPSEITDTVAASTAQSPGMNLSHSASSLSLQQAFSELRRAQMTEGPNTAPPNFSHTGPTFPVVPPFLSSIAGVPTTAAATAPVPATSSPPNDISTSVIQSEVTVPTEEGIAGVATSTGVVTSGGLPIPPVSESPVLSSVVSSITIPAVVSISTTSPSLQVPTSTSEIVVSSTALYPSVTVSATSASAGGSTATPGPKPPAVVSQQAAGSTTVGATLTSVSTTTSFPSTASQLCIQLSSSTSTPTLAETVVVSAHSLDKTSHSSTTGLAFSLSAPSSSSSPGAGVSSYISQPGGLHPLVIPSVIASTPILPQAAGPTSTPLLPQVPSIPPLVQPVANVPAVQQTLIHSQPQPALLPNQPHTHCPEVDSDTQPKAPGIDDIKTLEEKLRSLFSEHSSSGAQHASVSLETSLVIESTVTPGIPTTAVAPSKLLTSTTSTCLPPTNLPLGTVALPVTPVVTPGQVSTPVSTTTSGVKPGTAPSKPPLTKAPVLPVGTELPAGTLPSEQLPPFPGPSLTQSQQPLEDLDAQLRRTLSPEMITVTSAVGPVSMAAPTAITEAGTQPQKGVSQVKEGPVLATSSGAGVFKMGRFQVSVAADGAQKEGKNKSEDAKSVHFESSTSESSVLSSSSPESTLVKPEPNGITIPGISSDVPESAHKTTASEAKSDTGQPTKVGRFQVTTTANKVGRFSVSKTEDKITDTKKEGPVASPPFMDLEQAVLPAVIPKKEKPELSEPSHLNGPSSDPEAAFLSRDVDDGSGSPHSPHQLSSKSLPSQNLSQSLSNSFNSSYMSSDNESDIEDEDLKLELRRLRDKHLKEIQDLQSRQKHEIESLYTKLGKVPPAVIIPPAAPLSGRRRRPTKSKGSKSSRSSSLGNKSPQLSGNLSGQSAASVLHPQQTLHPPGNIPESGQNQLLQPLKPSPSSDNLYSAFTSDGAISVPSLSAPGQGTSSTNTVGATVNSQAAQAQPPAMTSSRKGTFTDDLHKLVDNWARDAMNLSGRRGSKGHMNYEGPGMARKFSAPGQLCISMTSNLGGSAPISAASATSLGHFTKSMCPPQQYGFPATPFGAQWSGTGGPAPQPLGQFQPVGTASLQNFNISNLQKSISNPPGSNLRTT

[3] = target: T1, Serine/threonine-protein kinase tousled-like 1 (Homo sapiens) (UniProt Q9UKI8); experiment: Inhibition of TLK1 in human HeLa cells lysate at 50 uM pre incubated for 15 mins followed by ADP acyl phosphate probe addition and measured after 10 mins by LC-MS/MS analysis relative to control; type: subcellular; conditions: time 25.0 min
T1 sequence (whole entry): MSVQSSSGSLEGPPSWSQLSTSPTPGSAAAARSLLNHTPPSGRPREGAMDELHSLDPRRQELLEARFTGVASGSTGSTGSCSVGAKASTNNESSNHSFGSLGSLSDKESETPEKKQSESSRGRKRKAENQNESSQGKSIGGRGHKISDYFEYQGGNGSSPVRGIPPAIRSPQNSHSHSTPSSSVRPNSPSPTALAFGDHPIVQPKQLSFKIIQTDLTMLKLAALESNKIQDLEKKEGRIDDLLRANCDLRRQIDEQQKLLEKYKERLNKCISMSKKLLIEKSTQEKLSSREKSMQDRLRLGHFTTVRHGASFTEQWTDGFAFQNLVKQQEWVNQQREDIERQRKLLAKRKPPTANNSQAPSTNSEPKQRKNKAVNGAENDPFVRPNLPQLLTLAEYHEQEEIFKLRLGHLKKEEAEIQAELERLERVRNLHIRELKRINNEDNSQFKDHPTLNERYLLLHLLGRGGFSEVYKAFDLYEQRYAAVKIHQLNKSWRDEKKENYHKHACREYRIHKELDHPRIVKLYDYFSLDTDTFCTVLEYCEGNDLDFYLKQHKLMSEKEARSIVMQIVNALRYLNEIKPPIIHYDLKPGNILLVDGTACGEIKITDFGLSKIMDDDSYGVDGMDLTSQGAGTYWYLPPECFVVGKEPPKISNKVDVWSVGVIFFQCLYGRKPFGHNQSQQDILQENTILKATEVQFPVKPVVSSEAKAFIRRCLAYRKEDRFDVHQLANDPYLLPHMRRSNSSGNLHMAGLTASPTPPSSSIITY

[4] = target: Serine/threonine-protein kinase Nek7 (Homo sapiens, UniProt Q8TDX7); experiment: Inhibition of NEK7 in human HeLa cells lysate pre incubated for 15 mins followed by ADP acyl phosphate probe addition and measured after 10 mins by LC-MS/MS analysis; type: subcellular
Serine/threonine-protein kinase Nek7, sequence (Q8TDX7 whole entry): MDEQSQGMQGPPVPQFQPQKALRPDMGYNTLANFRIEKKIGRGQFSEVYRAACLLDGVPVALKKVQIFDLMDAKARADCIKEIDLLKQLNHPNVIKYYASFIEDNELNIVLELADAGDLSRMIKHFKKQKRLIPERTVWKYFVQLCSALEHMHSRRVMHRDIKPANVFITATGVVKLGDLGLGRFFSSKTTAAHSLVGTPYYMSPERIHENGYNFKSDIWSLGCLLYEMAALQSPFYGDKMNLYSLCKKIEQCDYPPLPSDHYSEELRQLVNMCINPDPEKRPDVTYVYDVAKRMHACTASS

[5] = target: Serine/threonine-protein kinase LATS1 (Homo sapiens) (UniProt O95835); experiment: Inhibition of LATS1 in human HeLa cells lysate at 2 uM pre incubated for 15 mins followed by ATP acyl phosphate probe addition and measured after 10 mins by LC-MS/MS analysis relative to control; type: subcellular; conditions: time 25.0 min
[6] = target: Mitogen-activated protein kinase; ERK1/ERK2 (Homo sapiens) (UniProt P27361+P28482); experiment: Inhibition of ERK1/2 in human HeLa cells assessed as reduction in EGF-induced ERK1/2 phosphorylation level at T202/Y204 residue at 1 to 5 uM pre incubated for 1 hr followed by EGF stimulation and measured after 17 mins by Western blot analysis; type: cell-based; conditions: dose 1-5 µM, time 77.0 min
Mitogen-activated protein kinase; ERK1/ERK2 (Homo sapiens), sequence (P27361 whole entry, looked up): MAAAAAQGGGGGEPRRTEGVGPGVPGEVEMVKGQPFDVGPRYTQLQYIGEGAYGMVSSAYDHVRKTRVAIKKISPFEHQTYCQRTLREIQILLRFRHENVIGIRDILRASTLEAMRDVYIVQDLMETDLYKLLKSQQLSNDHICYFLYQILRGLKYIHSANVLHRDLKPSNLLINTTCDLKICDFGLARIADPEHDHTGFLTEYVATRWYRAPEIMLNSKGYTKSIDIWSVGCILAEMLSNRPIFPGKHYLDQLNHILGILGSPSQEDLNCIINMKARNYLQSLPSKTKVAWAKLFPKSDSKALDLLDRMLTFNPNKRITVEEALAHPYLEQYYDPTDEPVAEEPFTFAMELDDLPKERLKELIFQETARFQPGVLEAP
Mitogen-activated protein kinase; ERK1/ERK2 (Homo sapiens), sequence (P28482 whole entry, looked up): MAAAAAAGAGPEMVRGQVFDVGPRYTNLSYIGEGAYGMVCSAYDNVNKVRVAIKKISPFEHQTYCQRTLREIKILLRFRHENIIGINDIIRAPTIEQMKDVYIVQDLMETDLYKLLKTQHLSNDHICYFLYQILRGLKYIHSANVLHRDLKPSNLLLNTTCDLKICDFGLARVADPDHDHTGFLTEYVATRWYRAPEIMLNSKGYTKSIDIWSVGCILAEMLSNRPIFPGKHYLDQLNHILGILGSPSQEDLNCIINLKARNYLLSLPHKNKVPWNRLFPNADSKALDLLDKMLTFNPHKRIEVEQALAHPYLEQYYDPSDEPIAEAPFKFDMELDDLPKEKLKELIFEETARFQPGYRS

[7] = Inhibition of NEK6/7 in human HeLa cells lysate at 50 uM pre incubated for 15 mins followed by ADP acyl phosphate probe addition and measured after 10 mins by LC-MS/MS analysis relative to control; conditions: 25 min, condition cancer
[8] = target: Serine/threonine-protein kinase PLK1 (Homo sapiens, UniProt P53350); experiment: Inhibition of PLK1 in human HeLa cells lysate at 50 uM pre incubated for 15 mins followed by ATP acyl phosphate probe addition and measured after 10 mins by LC-MS/MS analysis relative to control; type: subcellular; conditions: time 25.0 min
[9] = target: T2, Serine/threonine-protein kinase Nek9 (Homo sapiens) (UniProt Q8TD19); experiment: Inhibition of NEK9 in human HeLa cells lysate at 10 uM pre incubated for 15 mins followed by ATP acyl phosphate probe addition and measured after 10 mins by LC-MS/MS analysis relative to control; type: subcellular; conditions: time 25.0 min
T2 sequence (whole entry): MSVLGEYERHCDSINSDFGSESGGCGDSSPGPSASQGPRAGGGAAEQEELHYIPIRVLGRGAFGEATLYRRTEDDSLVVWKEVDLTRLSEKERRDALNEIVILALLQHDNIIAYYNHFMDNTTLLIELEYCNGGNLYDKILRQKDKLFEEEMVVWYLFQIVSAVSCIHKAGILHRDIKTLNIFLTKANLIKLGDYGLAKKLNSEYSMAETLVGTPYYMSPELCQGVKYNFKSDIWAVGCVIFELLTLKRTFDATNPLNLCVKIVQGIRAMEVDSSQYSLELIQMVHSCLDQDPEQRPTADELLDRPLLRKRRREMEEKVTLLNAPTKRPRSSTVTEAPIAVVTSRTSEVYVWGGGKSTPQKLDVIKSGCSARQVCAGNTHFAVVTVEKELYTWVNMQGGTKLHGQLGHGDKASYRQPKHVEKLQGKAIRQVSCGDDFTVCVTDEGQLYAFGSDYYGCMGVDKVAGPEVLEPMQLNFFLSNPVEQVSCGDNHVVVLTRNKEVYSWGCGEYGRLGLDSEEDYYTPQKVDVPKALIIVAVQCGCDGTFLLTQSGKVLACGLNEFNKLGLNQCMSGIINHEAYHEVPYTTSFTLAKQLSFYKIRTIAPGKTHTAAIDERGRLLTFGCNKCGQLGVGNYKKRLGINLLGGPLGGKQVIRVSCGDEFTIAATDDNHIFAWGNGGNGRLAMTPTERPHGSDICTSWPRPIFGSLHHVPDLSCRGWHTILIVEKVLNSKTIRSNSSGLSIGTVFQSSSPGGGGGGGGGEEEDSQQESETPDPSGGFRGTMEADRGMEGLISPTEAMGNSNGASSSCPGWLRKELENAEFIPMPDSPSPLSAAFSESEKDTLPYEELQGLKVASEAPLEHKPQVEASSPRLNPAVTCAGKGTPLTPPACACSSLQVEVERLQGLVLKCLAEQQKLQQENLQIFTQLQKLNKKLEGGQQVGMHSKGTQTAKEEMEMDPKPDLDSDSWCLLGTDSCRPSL

[10] = target: Interferon-induced, double-stranded RNA-activated protein kinase (Homo sapiens, UniProt P19525); experiment: Inhibition of PKR in human HeLa cells lysate at 2 uM pre incubated for 15 mins followed by ADP acyl phosphate probe addition and measured after 10 mins by LC-MS/MS analysis relative to control; type: subcellular; conditions: time 25.0 min
Interferon-induced, double-stranded RNA-activated protein kinase, sequence (P19525 whole entry): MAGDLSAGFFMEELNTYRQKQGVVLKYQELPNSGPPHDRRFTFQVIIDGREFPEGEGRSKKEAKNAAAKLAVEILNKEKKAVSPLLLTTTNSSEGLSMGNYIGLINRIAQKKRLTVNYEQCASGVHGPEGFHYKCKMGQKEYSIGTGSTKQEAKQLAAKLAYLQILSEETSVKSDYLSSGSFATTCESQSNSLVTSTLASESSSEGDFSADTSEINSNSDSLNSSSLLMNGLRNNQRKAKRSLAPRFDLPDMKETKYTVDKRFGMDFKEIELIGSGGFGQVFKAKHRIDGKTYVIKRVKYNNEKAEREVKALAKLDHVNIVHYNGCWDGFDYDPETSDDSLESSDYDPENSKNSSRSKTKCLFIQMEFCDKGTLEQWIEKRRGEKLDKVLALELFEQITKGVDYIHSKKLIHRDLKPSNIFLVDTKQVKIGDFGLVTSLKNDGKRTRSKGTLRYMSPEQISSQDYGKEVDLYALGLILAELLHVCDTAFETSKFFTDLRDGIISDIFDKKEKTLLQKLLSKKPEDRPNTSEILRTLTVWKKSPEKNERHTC

[11] = target: Dual specificity mitogen-activated protein kinase kinase 4 (Homo sapiens, UniProt P45985); experiment: Inhibition of MAP2K4 in human HeLa cells lysate pre incubated for 15 mins followed by ADP acyl phosphate probe addition and measured after 10 mins by LC-MS/MS analysis; type: subcellular

Ribosomal protein S6 kinase alpha-3, sequence (P51812 whole entry, the tested form may be a part): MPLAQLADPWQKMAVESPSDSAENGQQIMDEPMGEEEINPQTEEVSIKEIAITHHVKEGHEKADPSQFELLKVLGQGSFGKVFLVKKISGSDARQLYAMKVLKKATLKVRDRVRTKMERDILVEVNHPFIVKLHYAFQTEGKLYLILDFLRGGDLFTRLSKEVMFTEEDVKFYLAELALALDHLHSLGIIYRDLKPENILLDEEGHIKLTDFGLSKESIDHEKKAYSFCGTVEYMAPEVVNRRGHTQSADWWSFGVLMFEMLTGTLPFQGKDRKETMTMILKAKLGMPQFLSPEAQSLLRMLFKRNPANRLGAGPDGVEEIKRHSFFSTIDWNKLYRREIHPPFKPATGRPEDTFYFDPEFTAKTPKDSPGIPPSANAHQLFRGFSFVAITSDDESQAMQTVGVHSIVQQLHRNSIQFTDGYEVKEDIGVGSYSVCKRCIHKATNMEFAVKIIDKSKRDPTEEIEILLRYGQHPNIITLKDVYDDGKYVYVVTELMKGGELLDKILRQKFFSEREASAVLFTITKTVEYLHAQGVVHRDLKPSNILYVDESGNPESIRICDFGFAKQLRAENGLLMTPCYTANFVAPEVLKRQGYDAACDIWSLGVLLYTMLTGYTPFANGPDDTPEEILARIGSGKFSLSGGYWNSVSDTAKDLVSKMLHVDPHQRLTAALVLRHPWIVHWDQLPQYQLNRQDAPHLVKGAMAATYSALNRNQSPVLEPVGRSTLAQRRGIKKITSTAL

Question: Which results are given for `CCOc1cc(N2CCC(O)CC2)ccc1Nc1ncc2c(n1)N(C)c1ccccc1C(=O)N2C`?
Answer: inhibition [1]: -4.3%; IC50 [2]: > 50 µM; inhibition [3]: -4.5%; IC50 [4]: > 50 µM; inhibition [5]: 5.7%; inhibition [6]: inactive; inhibition at 50 µM [7]: 5.6%; inhibition [8]: -6.5%; inhibition [9]: -7.3%; inhibition [10]: 8.4%; IC50 [11]: > 50 µM

— ChEMBL document CHEMBL5661979, “Pharmacological inhibition of BMK1 suppresses tumor growth through promyelocytic leukemia protein” (Cancer Cell, 2010)
